Data from article PMC12304293, “Combatting virulent gut bacteria by inhibiting the biosynthesis of a two-component lanthipeptide toxin” (Nature Communications, 2025).
Several values for one entry are separate records, joined by “and”; a condition that tells them apart may be missing. Equal values may be shown once. Non-standard residues stand in square brackets, D forms with d. Residues, ends and D or L forms follow the SMILES beside them. *: point of attachment. boroGlu = O=C(O)CC[C@H](N*)B(O)O; Gly(cPr) = N[C@H](C(=O)O)C1CC1

Experiments:
His6-CylA-27-412 [1] = target: T1, His6-CylA-27-412 (Enterococcus faecalis, UniProt A0A2P6AWB8); assay: FRET assay, initial rates of FRET peptide cleavage; assay type: biochemical; conditions: 762, 254, or 85 pM of inhibitor (substoichiometric; enzyme 20 nM)
T1 sequence (A0A2P6AWB8 27-412): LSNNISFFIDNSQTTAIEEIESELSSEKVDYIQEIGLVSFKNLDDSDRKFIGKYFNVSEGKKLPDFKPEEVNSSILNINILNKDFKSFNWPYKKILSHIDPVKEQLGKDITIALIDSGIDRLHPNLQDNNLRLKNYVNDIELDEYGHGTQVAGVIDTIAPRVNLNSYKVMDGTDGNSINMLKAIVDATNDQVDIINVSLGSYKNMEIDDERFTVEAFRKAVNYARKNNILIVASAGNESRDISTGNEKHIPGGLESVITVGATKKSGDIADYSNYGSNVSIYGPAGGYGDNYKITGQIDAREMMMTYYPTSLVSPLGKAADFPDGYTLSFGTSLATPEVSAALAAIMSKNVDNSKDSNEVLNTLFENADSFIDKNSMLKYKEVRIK
Procedure: A FRET assay was developed to directly detect the inhibition of His6-CylA-27-412 activity by inhibitor 9. Fmoc SPPS was used to prepare a FRET labeled substrate. The substrate recognition sequence and a portion of the N-terminus of unmodified CylLS were embedded in between N-terminal Asp(EDANS) and C-terminal Lys(DABCYL) residues (Fig. 5A).
A Structure of the FRET substrate and its cleavage by CylA. Samples of FRET substrate (44 µM) in PBS (pH = 7.4) before and after treatment with His6-CylA-27-412 (200 nM) overnight at 37 °C. […] Points represent the mean. Error bars represent the standard of deviation and are centered at the mean. C The relationship between relative enzyme activity (vi/vo) and concentration of 9. […] The colored line represents the calculated fit function. Points represent the mean and error bars represent the standard of deviation centered at the mean. […] For (D) and (E) absorbance at 220 nm was monitored. […] Statistical significance was calculated using a one sample and one-sided t test. *P < 0.05, **P < 0.01. […]
The emission intensity of EDANS was measured over a 4 h period using a BioTek Synergy H4 plate reader. The slope of the linear portion of the emission intensity as a function of time curve was calculated (vi), divided by the slope of an uninhibited control (vo), and the ratio (vi/vo) was plotted as function of total inhibitor concentration.

His6-CylA-27-412 [2] = target: T1, His6-CylA-27-412; assay: Analytical size exclusion chromatography (pro-domain release); conditions: increasing inhibitor:CylA ratio
Procedure: To gain more insight into this phenomenon, His6-CylA-27-412 that had undergone complete autolytic cleavage as determined by SDS-PAGE and that had been purified by size exclusion chromatography (SEC), was analyzed by analytical SEC (aSEC) in the presence of inhibitor 9. […] This assignment was supported by SDS-PAGE analysis of the eluted fractions (Supplementary Fig. 8). […] The SEC retention time data is inconsistent with CylA forming higher order oligomers, ruling out a DegP-like activation mechanism.
Samples of His6-CylA-27-412 prepared as described in ‘Expression and purification of His6-CylA-27-412’ were diluted to a concentration of 50 μM and injected (20 μL injection volume) into an Agilent 1260 infinity analytical high-performance liquid chromatography system equipped with a Biozen™ 1.8 μm, 300 × 4.6 mm LC column pre-equilibriated with aSEC buffer (100 mM NaHPO4, 200 mM NaCl, pH = 7.4). Absorbance at 220 nm was monitored. A flow rate of 0.25 mL/min was used for all experiments. Retention time was correlated to protein size using a Gel Filtration Standard (Biorad) and samples of carbonic anhydrase isolated from bovine erythrocytes (Sigma Aldrich) and albumin isolated from bovine serum (Sigma Aldrich).

[3] = system: cylLL, cylLS, and cylA transcripts in C+ E. faecalis ATCC 29212; assay: RT-qPCR of cylLL, cylLS and cylA transcripts; assay type: cell-based, Enterococcus faecalis
Procedure: Since the cytolysin BGC is often expressed in two transcripts because of the presence of a weak intergenic terminator between cylLL and cylM, primers and amplicons were selected for cylLL, cylLS and cylA[67].
The amounts of cylLL, cylLS, and cylA transcripts relative to the amount of 16S rRNA were determined by RT-qPCR. Amplicons and primers used to quantify cylLL, cylLS and 16S rRNA were identical to those previously reported. All primers are listed in Supplementary Table 3. Overnight cultures of E. faecalis ATCC 29212 were prepared as described in ‘Detection of CylLS” from extracts of E. faecalis’. Upon inoculation, samples were treated with 100 μM of 9 or vehicle. The samples were incubated at 37 °C for 20 h, then cells were collected by centrifugation (5000 g for 10 min). The supernatant was removed and the cells pellets were re-suspended in Lysis buffer (10 mM TrisHCl, 3 mg/mL lysozyme, pH = 7.8) at a concentration of 160 μL of Lysis buffer for 1 mL of overnight culture. The cells were incubated in Lysis buffer at room temperature for 15 min then RNA was extracted using a Monarch® Total RNA Miniprep Kit. Isolated RNA was immediately converted to cDNA using an iScript™ cDNA Synthesis Kit. cDNA was amplified using a SsoAdvanced Universal SYBR Green Supermix and a StepOnePlus Real-Time PCR System (Applied Biosystems). The expression level of each gene in each sample was determined by taking the difference between the CT of the amplification curve for the gene of interest (cylLL, cylLS or cylA) and the CT of the amplification curve for 16S rRNA, yielding ΔCT. ΔΔCT was determined by taking the difference between the ΔCT of the inhibitor treated sample and the ΔCT of the inhibitor-free control for each gene. Fold change in gene expression was calculature using Eq. (2)[76]. Four biological replicates were performed.2 Foldchangeingeneexpression=2^ΔΔCT

[4] = 100 μM of 9, untreated control = 1.0

CC(=O)NCC(=O)N[C@@H](CC(=O)O)C(=O)N[C@H](C(=O)N[C@@H](CCC(N)=O)C(=O)N[C@@H](C)C(=O)N[C@@H](CCC(=O)O)B(O)O)C1CC1 [Compound 9] (Ac-GD[Gly(cPr)]QA-boroGlu)
rate of FRET peptide cleavage (His6-CylA-27-412 [1]): increased significantly | conversion of CylA-96-412°His6-27-95 to the 12.1 min peak (pro-domain release), aSEC (His6-CylA-27-412 [2]): transition appeared complete once a stoichiometric equivalent of inhibitor was added | Fold Change, gene CylA (Figure 8D), replicates [3, 4]: 0.01989 and 0.0236 and 0.00144 and 0.00137 | Fold Change, gene CylLL (Figure 8D), replicates [3, 4]: 0.00585 and 0.2177 and 0.1852 | Fold Change, gene CylLS (Figure 8D), replicates [3, 4]: 0.2335 and 0.2124 and 0.00397 and 0.00605 | reduction in cylA transcripts ([3]; 100 μM, vs untreated control): 86 fold | reduction in cylLL transcripts ([3]; 100 μM, vs untreated control): 9-10 fold | reduction in cylLS transcripts ([3]; 100 μM, vs untreated control): 9-10 fold
